Measured values: patent publication US20090326003A1, “PYRAZOLO (3, 4-B) PYRIDINE DERIVATIVES AS PDE4 INHIBITORS” (priority 2006, published 2009)
Structures can show the parent of a compound that is named as a salt.

These compounds were tested against T1, PDE4B (human recombinant) (Homo sapiens, UniProt Q07343) (assay: PDE4B inhibition, fluorescence polarisation (FP) and/or SPA assay). Conditions: n=1 or average of 2 or more readings, accuracy ±about 0.5 log unit, read-out: PDE4B pIC50 (generally in FP assay) (±about 0.5) (converted).
T1 construct: made in house
T1 sequence (Q07343 1-564 isoform Q07343-2): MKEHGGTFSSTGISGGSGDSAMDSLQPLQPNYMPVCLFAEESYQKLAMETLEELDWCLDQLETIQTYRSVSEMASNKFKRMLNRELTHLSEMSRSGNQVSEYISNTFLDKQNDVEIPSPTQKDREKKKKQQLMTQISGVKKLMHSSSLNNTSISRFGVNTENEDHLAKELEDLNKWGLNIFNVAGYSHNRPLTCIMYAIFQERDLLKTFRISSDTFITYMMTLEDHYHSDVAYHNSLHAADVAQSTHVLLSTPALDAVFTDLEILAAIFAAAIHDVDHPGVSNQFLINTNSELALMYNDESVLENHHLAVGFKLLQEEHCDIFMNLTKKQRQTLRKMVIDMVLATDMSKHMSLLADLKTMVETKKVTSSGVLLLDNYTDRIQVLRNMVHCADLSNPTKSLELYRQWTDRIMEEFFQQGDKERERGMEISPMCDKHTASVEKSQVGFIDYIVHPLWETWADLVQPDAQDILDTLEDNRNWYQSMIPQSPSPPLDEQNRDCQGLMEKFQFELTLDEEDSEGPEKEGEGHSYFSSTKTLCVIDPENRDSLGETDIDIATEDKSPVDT
Type: biochemical
Source text: Human recombinant PDE4B, in particular the 2B splice variant thereof (HSPDE4B2B), is disclosed in WO 94/20079 and also M. M. McLaughlin et al., “A low Km, rolipram-sensitive, cAMP-specific phosphodiesterase from human brain: cloning and expression of cDNA, biochemical characterisation of recombinant protein, and tissue distribution of mRNA”, J. Biol. Chem., 1993, 268, 6470-6476. For example, in Example 1 of WO 94/20079, human recombinant PDE4B is described as being expressed in the PDE-deficient yeast Saccharomyces cerevisiae strain GL62, e.g. after induction by addition of 150 uM CuSO4, and 100,000×g supernatant fractions of yeast cell lysates are described for use in the harvesting of PDE4B enzyme.
The ability of compounds to inhibit catalytic activity at PDE4B or 4D (human recombinant), PDE3 (from bovine aorta), PDE5 (human recombinant) or PDE6 (from bovine retina) can optionally be determined by Scintillation Proximity Assay (SPA) in a 96-well format.
Test compounds (as a solution in DMSO, preferably about 2 microliter (ul) volume of DMSO solution) are preincubated at ambient temperature (room temperature, e.g. 19-23° C.) in Wallac Isoplates (code 1450-514) with PDE enzyme in 50 mM Tris-HCl buffer pH 7.5, 8.3 mM MgCl2, 1.7 mM EGTA, 0.05% (w/v) bovine serum albumin for 10-30 minutes (usually 30 minutes). The enzyme concentration is adjusted so that no more than 20% hydrolysis of the substrate defined below occurs in control wells without compound, during the incubation. For the PDE3, PDE4B and PDE4D assays, [5′,8-3H]Adenosine 3′,5′-cyclic phosphate (Amersham Pharmacia Biotech, code TRK.559; or Amersham Biosciences UK Ltd, Pollards Wood, Chalfont St Giles, Buckinghamshire HP8 4SP, UK) is added to give 0.05 uCi per well and about 10 nM final concentration. For the PDE5 and PDE6 assays, [8-^3H]Guanosine 3′,5′-cyclic phosphate (Amersham Pharmacia Biotech, code TRK.392) is added to give 0.05 uCi per well and about 36 nM final concentration. Plates containing assay mixture, preferably approx. 100 ul volume of assay mixture, are mixed on an orbital shaker for 5 minutes and incubated at ambient temperature for 1 hour. Phosphodiesterase SPA beads (Amersham Pharmacia Biotech, code RPNQ 0150) are added (about 1 mg per well) to terminate the assay. Plates are sealed and shaken and allowed to stand at ambient temperature for 35 minutes to 1 hour (preferably 35 minutes) to allow the beads to settle. Bound radioactive product is measured using a WALLAC TRILUX 1450 Microbeta scintillation counter. For inhibition curves, 10 concentrations (e.g. 1.5 nM-30 uM) of each compound are assayed. Curves are analysed using ActivityBase and XLfit (ID Business Solutions Limited, 2 Ocean Court, Surrey Research Park, Guildford, Surrey GU2 7QB, United Kingdom) Results are expressed as pIC50 values.
The ability of compounds to inhibit catalytic activity at PDE4B (human recombinant) or PDE4D (human recombinant) can optionally be determined by IMAP Fluorescence Polarisation (FP) assay (IMAP Explorer kit, available from Molecular Devices Corporation, Sunnydale, Calif., USA; Molecular Devices code: R8062) in 384-well format.
The IMAP FP assay is able to measure PDE activity in an homogenous, non-radioactive assay format. The FP assay uses the ability of immobilised trivalent metal cations, coated onto nanoparticles (tiny beads), to bind the phosphate group of FI-AMP that is produced on the hydrolysis of fluorescein-labelled (FI) cyclic adenosine mono-phosphate (FI-cAMP) to the non-cyclic FI-AMP form. […] Binding of FI-AMP product to the beads (coated with the immobilised trivalent cations) slows the rotation of the bound FI-AMP and leads to an increase in the fluorescence polarisation ratio of parallel to perpendicular light. Inhibition of the PDE reduces/inhibits this signal increase. […]
Compound `CCc1nc2c(cnn2CC)c(NC2CCN(C(N)=O)CC2)c1CNC(=O)C1CCC(C(=O)NCc2c(CC)nc3c(cnn3CC)c2NC2CCN(C(N)=O)CC2)CC1` (centres unmarked) [Example 11, N,N′-bis[(4-{[1-(aminocarbonyl)-4-piperidinyl]amino}-1,6-diethyl-1H-pyrazolo[3,4-b]pyridin-5-yl)methyl]-1,4-cyclohexanedicarboxamide trifluoroacetate] has an IC50 of 0.0158 to 0.1 nM. For `CCc1nc2c(cnn2CC)c(NC2CCOCC2)c1CNC(=O)c1cnc(C(=O)NCc2c(CC)nc3c(cnn3CC)c2NC2CCOCC2)cn1` [Example 32, N,N′-bis{[1,6-diethyl-4-(tetrahydro-2H-pyran-4-ylamino)-1H-pyrazolo[3,4-b]pyridin-5-yl]methyl}-2,5-pyrazinedicarboxamide], the IC50 was 0.126 to 1 nM. Compound `CCc1nc2c(cnn2CC)c(NC2CCOCC2)c1CNC(=O)c1ccc(Oc2ccc(C(=O)NCc3c(CC)nc4c(cnn4CC)c3NC3CCOCC3)cc2)cc1` [Example 24, 4,4′-oxybis(N-{[1,6-diethyl-4-(tetrahydro-2H-pyran-4-ylamino)-1H-pyrazolo[3,4-b]pyridin-5-yl]methyl}benzamide)] has an IC50 of 0.126 to 1 nM. In the case of `CCc1nc2c(cnn2CC)c(NC2CCOCC2)c1CNC(=O)c1ccc(-c2ccc(C(=O)NCc3c(CC)nc4c(cnn4CC)c3NC3CCOCC3)cn2)nc1` [Example 34, N,N′-bis{[1,6-diethyl-4-(tetrahydro-2H-pyran-4-ylamino)-1H-pyrazolo[3,4-b]pyridin-5-yl]methyl}-2,2′-bipyridine-5,5′-dicarboxamide], the IC50 is reported as 0.126 to 1 nM. `CCc1nc2c(cnn2CC)c(NC2CCN(C(N)=O)CC2)c1CNC(=O)CS(=O)(=O)CC(=O)NCc1c(CC)nc2c(cnn2CC)c1NC1CCN(C(N)=O)CC1` [Example 12, 4,4′-{sulfonylbis[(1-oxo-2,1-ethanediyl)iminomethanediyl(1,6-diethyl-1H-pyrazolo[3,4-b]pyridine-5,4-diyl)imino]}di(1-piperidinecarboxamide) trifluoroacetate] was tested, and the IC50 was 0.0158 to 0.1 nM. Compound `CCc1nc2c(cnn2CC)c(NC2CCN(C(N)=O)CC2)c1CNC(=O)COc1ccccc1C(=O)NCc1c(CC)nc2c(cnn2CC)c1NC1CCN(C(N)=O)CC1` [Example 16, 4-[(5-{[({[2-({[(4-{[1-(aminocarbonyl)-4-piperidinyl]amino}-1,6-diethyl-1H-pyrazolo[3,4-b]pyridin-5-yl)methyl]amino}carbonyl)phenyl]oxy}acetyl)amino]methyl}-1,6-diethyl-1H-pyrazolo[3,4-b]pyridin-4-yl)amino]-1-piperidinecarboxamide trifluoroacetate] has an IC50 of 0.0158 to 0.1 nM. Work on `CCc1nc2c(cnn2CC)c(NC2CCN(C(N)=O)CC2)c1CNC(=O)CCC(=O)NCc1c(CC)nc2c(cnn2CC)c1NC1CCN(C(N)=O)CC1` [Example 17, N,N′-bis[(4-{[1-(aminocarbonyl)-4-piperidinyl]amino}-1,6-diethyl-1H-pyrazolo[3,4-b]pyridin-5-yl)methyl]butanediamide trifluoroacetate] yielded an IC50 of 0.126 to 1 nM. `CCc1nc2c(cnn2CC)c(NC2CCN(C(N)=O)CC2)c1CNC(=O)Cc1ccc(C(=O)NCc2c(CC)nc3c(cnn3CC)c2NC2CCN(C(N)=O)CC2)cc1` [Example 15, 4-({5-[({[4-({[(4-{[1-(aminocarbonyl)-4-piperidinyl]amino}-1,6-diethyl-1H-pyrazolo[3,4-b]pyridin-5-yl)methyl]amino}carbonyl)phenyl]acetyl}amino)methyl]-1,6-diethyl-1H-pyrazolo[3,4-b]pyridin-4-yl}amino)-1-piperidinecarboxamide trifluoroacetate] was tested, and the IC50 was 0.0158 to 0.1 nM. For `CCc1nc2c(cnn2CC)c(NC2CCN(C(N)=O)CC2)c1CNC(=O)Cc1cccc(C(=O)NCc2c(CC)nc3c(cnn3CC)c2NC2CCN(C(N)=O)CC2)c1` [Example 13, 4-({5-[({[3-({[(4-{[1-(aminocarbonyl)-4-piperidinyl]amino}-1,6-diethyl-1H-pyrazolo[3,4-b]pyridin-5-yl)methyl]amino}carbonyl)phenyl]acetyl}amino)methyl]-1,6-diethyl-1H-pyrazolo[3,4-b]pyridin-4-yl}amino)-1-piperidinecarboxamide trifluoroacetate], the IC50 was 0.126 to 1 nM. With `CCc1nc2c(cnn2CC)c(NC2CCN(C(N)=O)CC2)c1CNC(=O)CC(C)(C)CC(=O)NCc1c(CC)nc2c(cnn2CC)c1NC1CCN(C(N)=O)CC1` [Example 19, N,N′-bis[(4-{[1-(aminocarbonyl)-4-piperidinyl]amino}-1,6-diethyl-1H-pyrazolo[3,4-b]pyridin-5-yl)methyl]-3,3-dimethylpentanediamide trifluoroacetate] the IC50 was 0.0158 to 0.1 nM. Work on `CCc1nc2c(cnn2CC)c(NC2CCN(C(N)=O)CC2)c1CNC(=O)c1ccc(-c2ccc(C(=O)NCc3c(CC)nc4c(cnn4CC)c3NC3CCN(C(N)=O)CC3)cc2)cc1` [Example 26, N,N′-bis[(4-{[1-(aminocarbonyl)-4-piperidinyl]amino}-1,6-diethyl-1H-pyrazolo[3,4-b]pyridin-5-yl)methyl]-4,4′-biphenyldicarboxamide] yielded an IC50 of 0.0158 to 0.1 nM. `CCc1nc2c(cnn2CC)c(NC2CCOCC2)c1CNC(=O)CCc1ccc(C(=O)NCc2c(CC)nc3c(cnn3CC)c2NC2CCOCC2)cc1` [Example 1, N-{[1,6-diethyl-4-(tetrahydro-2H-pyran-4-ylamino)-1H-pyrazolo[3,4-b]pyridin-5-yl]methyl}-4-[3-({[1,6-diethyl-4-(tetrahydro-2H-pyran-4-ylamino)-1H-pyrazolo[3,4-b]pyridin-5-yl]methyl}amino)-3-oxopropyl]benzamide] was tested, and the IC50 was 0.0158 to 0.1 nM. In the case of `CCc1nc2c(cnn2CC)c(NC2CCOCC2)c1CNC(=O)CCCC(=O)NCc1c(CC)nc2c(cnn2CC)c1NC1CCOCC1` [Example 2, N,N′-bis{[1,6-diethyl-4-(tetrahydro-2H-pyran-4-ylamino)-1H-pyrazolo[3,4-b]pyridin-5-yl]methyl}pentanediamide], the IC50 is reported as 0.126 to 1 nM. `CCc1nc2c(cnn2CC)c(NC2CCN(C(N)=O)CC2)c1CNC(=O)C1CCC(C(=O)NCc2c(CC)nc3c(cnn3CC)c2NC2CCN(C(N)=O)CC2)C1` (centres unmarked) [Example 20, N,N′-bis[(4-{[1-(aminocarbonyl)-4-piperidinyl]amino}-1,6-diethyl-1H-pyrazolo[3,4-b]pyridin-5-yl)methyl]-1,3-cyclopentanedicarboxamide trifluoroacetate] showed an IC50 of 0.0158 to 0.1 nM. `CCc1nc2c(cnn2CC)c(NC2CCOCC2)c1CNC(=O)CCc1ccccc1C(=O)NCc1c(CC)nc2c(cnn2CC)c1NC1CCOCC1` [Example 7, N-{[1,6-diethyl-4-(tetrahydro-2H-pyran-4-ylamino)-1H-pyrazolo[3,4-b]pyridin-5-yl]methyl}-2-[3-({[1,6-diethyl-4-(tetrahydro-2H-pyran-4-ylamino)-1H-pyrazolo[3,4-b]pyridin-5-yl]methyl}amino)-3-oxopropyl]benzamide] gave an IC50 of 0.0158 to 0.1 nM. `CCc1nc2c(cnn2CC)c(NC2CCOCC2)c1CNC(=O)CC(C)(C)CC(=O)NCc1c(CC)nc2c(cnn2CC)c1NC1CCOCC1` [Example 3, N,N′-bis{[1,6-diethyl-4-(tetrahydro-2H-pyran-4-ylamino)-1H-pyrazolo[3,4-b]pyridin-5-yl]methyl}-3,3-dimethylpentanediamide] gave an IC50 of 0.0158 to 0.1 nM. For `CCc1nc2c(cnn2CC)c(NC2CCN(C(N)=O)CC2)c1CNC(=O)c1ccc(C(=O)NCc2c(CC)nc3c(cnn3CC)c2NC2CCN(C(N)=O)CC2)cc1` [Example 25, N,N′-bis[(4-{[1-(aminocarbonyl)-4-piperidinyl]amino}-1,6-diethyl-1H-pyrazolo[3,4-b]pyridin-5-yl)methyl]-1,4-benzenedicarboxamide], the IC50 was 0.0158 to 0.1 nM.
